{"source": "patent US11318156B2", "about": "“Solid injectable veterinary implants comprising monocyclic lactone” (CEVA SANTE ANIMALE, priority 2017, dated 2022)", "origin": "cited, not measured here", "key": {"[1]": {"conditions": "14-week oral study"}, "[2]": {"experiment": "not given", "remark": "listed apart in the source"}}, "note": "Read-outs that look alike come from different tables or passages of the source.", "data": [{"substance": "ivermectin", "values": [{"measurement": "share of collie dogs highly sensitive to ivermectin", "value": "approximately 30%"}, {"measurement": "No Observable Effect Level (NOEL)", "setting": "[1]; beagle dogs", "value": 0.5, "unit": "mg/kg bw"}, {"measurement": "observed effects", "setting": "[1]; beagle dogs, 1.0 and 2.0 mg/kg bw", "value": "mydriasis and slight weight loss"}, {"measurement": "observed effects", "setting": "[1]; four dogs in the 2.0 mg/kg bw group, killed prior to end of study", "value": "tremors, ataxia, anorexia and dehydration"}, {"measurement": "average increase in plasma levels", "setting": "[2]; four-fold increase in the dose (0.5 to 2.0 mg/kg bw oral)", "value": "eight-fold"}, {"measurement": "time to steady-state of ivermectin (B1a) in plasma", "setting": "[2]; oral 0.5 and 2.0 mg/kg bw, 36-day study", "value": "about three weeks"}]}]}
